This note sets out measurements from publication PMC6719014, “First-In-Class Inhibitors Targeting the Interaction between Bacterial RNA Polymerase and Sigma Initiation Factor Affect the Viability and Toxin Release of Streptococcus pneumoniae” (Molecules, 2019).

The structures appear in SMILES notation.

A word on the inhibition: it is the percentage by which the read-out fell short of the control. Usually IC50 stands for the concentration that inhibits the measured activity by half. Read a high IC50 as lower potency.

The first experiment addresses T1, RNAP CH-σ (B. subtilis RpoC clamp-helix domain and full-length SigA) (Bacillus subtilis, UniProt P37871).
T1 construct: RpoC clamp-helix domain 220-315 with SmBiT NanoLuc tag (N-terminal, pCU252); full-length SigA with LgBiT NanoLuc tag (C-terminal, pCU251); purified recombinant; tags kept; with RNA polymerase sigma factor SigA
As to the kind of experiment: split-luciferase (NanoLuc) protein-protein interaction inhibition. Type of experiment: biochemical. From the text: split-luciferase (NanoLuc) protein-protein interaction inhibition on RNAP CH-σ (B. subtilis RpoC clamp-helix domain and full-length SigA)
Compound `Nc1ccc(Sc2ccc(C(=O)c3ccccc3C(=O)O)cc2[N+](=O)[O-])cc1` [C3-003, 2-(4-((4-Aminophenyl)thio)-3-nitrobenzoyl)benzoic Acid] registered an inhibition at 10 µM of 69.1 ± 10.7%.
Same read-out and setting: with `Nc1cc(Cl)ccc1Sc1ccc(C(=O)c2ccccc2C(=O)O)cc1[N+](=O)[O-]` [C3-004, 2-(4-((2-Amino-4-chlorophenyl)thio)-3-nitrobenzoyl)benzoic Acid] the figure was 60.5 ± 16.5%; with `Nc1cccc(Sc2ccc(C(=O)c3ccccc3C(=O)O)cc2[N+](=O)[O-])c1` [C3-002, 2-(4-((3-Aminophenyl)thio)-3-nitrobenzoyl)benzoic Acid], 81.3 ± 4.9%; with `O=C(O)c1ccccc1C(=O)c1ccc(Sc2ccc(Cl)c(Cl)c2)c([N+](=O)[O-])c1` [C3-005, 2-(4-((3,4-Dichlorophenyl)thio)-3-nitrobenzoyl)benzoic Acid], 81.7 ± 0.9%.
Still for that read-out and setting: to `Nc1ccccc1Sc1ccc(C(=O)c2ccccc2C(=O)O)cc1[N+](=O)[O-]` [C3-001, 2-(4-((2-Aminophenyl)thio)-3-nitrobenzoyl)benzoic Acid] belongs 62.2 ± 2.6%.

The next experiment deals with T1, RNAP CH-σ (B. subtilis RpoC clamp-helix domain and full-length SigA). The description is as above. The experiment is classed as binding. The source holds these as a separate data set.
Compound `Nc1ccccc1Sc1ccc(C(=O)c2ccccc2C(=O)O)cc1[N+](=O)[O-]` [C3-001, 2-(4-((2-Aminophenyl)thio)-3-nitrobenzoyl)benzoic Acid] gave an IC50 of 6.4 ± 0.71 µM.
